Laboratory results reported in patent US9040715B2 (priority 2008, dated 2015).
Converted amounts (≈) assume the structure as drawn. Read-outs that look alike come from different tables or passages of the source. *1 amine or outer side, *2 acyl side, *3 side chain or, on linkers, in order; H or OH if unused. Where a SMILES comes first, the peptide text is derived from it. Bridges are numbered along the chain shown (N, C = ends). [ ]: non-standard residue; d: D form. The star is where a group is joined. hTyr(3S-OH,4S-OH,3'-OSO3H) = N[C@H](C(=O)O)[C@H](O)[C@@H](O)c1ccc(O)c(OS(=O)(=O)O)c1; Orn(4R-OH,5R-OH) = O=C([C@H](C[C@@H](O)[C@@H](O)N[*:3])N[*:1])[*:2]; Pro(3S-OH,4S-Me) = C[C@H]1CN[C@H](C(=O)O)[C@H]1O; X1 = CCCCCOc1ccc(-c2cc(-c3ccc(C(=O)*)cc3)no2)cc1; Gln(3R-OH) = NC(=O)C[C@@H](O)[C@H](N)C(=O)O; Hyp = O=C(O)[C@@H]1C[C@@H](O)CN1

Tests used:
Assay type in all cases: cell-based
[1] = test system: Saccharomyces cerevisiae (YPH501); test: Anti-fungal/anti-yeast activity: MIC50 (broth microdilution) and MFC
[2] = test system: Candida glabrata; test: as above; conditions: for MFC / MIC50: Nakaseomyces glabratus
Protocol: (§1) Fluconazole, an ergosterol inhibitor, and the beta-1,3-glucan inhibitor micafungin served as controls (See Tables 1-8).
(§2) The minimum inhibitory concentrations resulting in 50% growth inhibition (MIC50) of […] Candida species (C. albicans, C. tropicalis and C. glabrata, C. lusitaniae, C. parapsilosis, and C. apicola) as well as Aspergillus fumigatus to a set of novel synthetic compounds was determined in accordance with the guidelines in CLSI document M27-A2 (Clinical and Laboratory Standards Institute; Wayne, Pa.). The total volume of cells and drug was 100 μL per microtiter well, and each drug was diluted in RPMI to achieve final concentrations of 0.2-100 μg/ml. Uninoculated cultures were used as a reference standard. Stock inoculum suspensions were prepared from 24 hour cultures on YPD (yeast extract/peptone/dextrose) media at 30° C. For MIC determinations, an inoculum of 1.0×10^3 cells of Candidia and 2.0×10^3 cells of Aspergillus per well were used, and cells in diluted drugs were prepared in RPMI-1640 medium. MICs were determined both visually and spectrophotometrically at 24 hours and 48 h at 550 nm using a micro plate reader. The MIC50 endpoint was measured as the lowest drug concentration resulting in a reduction of growth of 50% or more compared with growth of the control.
(§3) The minimum fungicidal concentrations (MFCs) were determined for each drug-isolate-medium combination as follows. After 48 hours of incubation, 100 μL of each drug-isolate-medium combination (2 plates) was subcultured onto YPD plates (100 μL of solution was spread over the YPD plate). […] The plates were then incubated at 30° C. for 48 hours.
(§4) The in vitro fungicidal activities (MFCs) were determined for each drug-isolate-medium combination as follows. After 48 hours of incubation, 10 μL each drug-isolate-medium combination was spotted onto YPD plates (10 μL of each well is spotted sequentially with positive and negative control wells). […] The plates were then incubated at 30° C. for 48 hours.

[3] = test system: Aspergillus fumigatus; test: as above
Protocol: as §1, §2, §3, §4

[4] = test system: Candida tropicalis; test: as above
Protocol: as §1, §2, §3, §4

[5] = test system: Candida apicola; test: as above; conditions: for MFC / MIC50: Starmerella apicola
Protocol: as §1, §2, §3, §4

[6] = test system: Candida albicans (CAF-2); test: as above
Protocol: as §1, §2, §3, §4

[7] = test system: Candida lusitaniae; test: as above; conditions: for MFC / MIC50: Clavispora lusitaniae
Protocol: as §1, §2, §3, §4

[8] = test system: Candidia parapsilosis; test: as above
Protocol: as §1, §2, §3, §4

[9] = test system: Fluconazole Resistant C. albicans; test: microbe, parasite or virus in culture; conditions: Candida albicans, read-out: MIC50
Protocol: as §2
The MIC50 of Compounds I-1, I-2, and I-5 in several mutant strains of Candida albicans, including fluconazole resistant clinical strains, was determined according to the methods described in Example 1 (see Table 9). The activity of Compound I-1 against fluconazole resistant strains was further explored (see Table 10). In Table 10, Strain #1 is a fluconazole sensitive Candida albicans strain; Strain #17 is a fluconazole resistant Candida albicans strain; C. albicans CS#01 is a first clinical strain; C. albicans CS#02 is a second clinical strain.

[10] = Saccharomyces cerevisiae (YPH501)

SMILES	Activity (fungicidal/fungistatic) [1, 10]	Ratio MFC/MIC [1, 10]	Activity (fungicidal/fungistatic) ([2]; Candida glabrata)	Ratio MFC/MIC ([2]; Candida glabrata)	Activity (fungicidal/fungistatic) [3]	Ratio MFC/MIC [3]	Activity (fungicidal/fungistatic) [4]	Ratio MFC/MIC [4]	Activity (fungicidal/fungistatic) ([5]; Candida apicola)	Ratio MFC/MIC ([5]; Candida apicola)	Activity (fungicidal/fungistatic) [6]	MFC [6] [µg/mL]	MIC50 [6] [µg/mL]	Ratio MFC/MIC [6]	Activity (fungicidal/fungistatic) ([7]; Candida lusitaniae)	Ratio MFC/MIC ([7]; Candida lusitaniae)	Activity (fungicidal/fungistatic) ([8]; Candidia parapsilosis)	Ratio MFC/MIC ([8]; Candidia parapsilosis)	further results
CCCCCOc1ccc(-c2cc(-c3ccc(C(=O)N[C@H]4C[C@@H](O)[C@@H](O)NC(=O)[C@@H]5[C@@H](O)[C@@H](C)CN5C(=O)[C@H]([C@H](O)CC(N)=O)NC(=O)[C@H]([C@H](O)[C@@H](O)c5ccc(O)c(OS(=O)(=O)O)c5)NC(=O)[C@@H]5C[C@@H](O)CN5C(=O)[C@H]([C@@H](C)O)NC4=O)cc3)no2)cc1 [Micafungin, micafungin, reference compound] (X1-[Orn(4R-OH,5R-OH)]T[Hyp][hTyr(3S-OH,4S-OH,3'-OSO3H)][Gln(3R-OH)][Pro(3S-OH,4S-Me)]; lactam 1-C)	fungicidal (An MFC/MIC ratio of less than four indicates that the compound is fungicidal)	2	fungicidal (An MFC/MIC ratio of less than four indicates that the compound is fungicidal)	1	fungistatic (an MFC/MIC ratio of greater than four indicates that the compound is fungistatic)	8	fungicidal (An MFC/MIC ratio of less than four indicates that the compound is fungicidal)	2	fungicidal (An MFC/MIC ratio of less than four indicates that the compound is fungicidal)	2	fungicidal (An MFC/MIC ratio of less than four indicates that the compound is fungicidal)	0.016	0.016	1	fungicidal (An MFC/MIC ratio of less than four indicates that the compound is fungicidal)	1	fungistatic (an MFC/MIC ratio of greater than four indicates that the compound is fungistatic)	8	MFC ([1]; Saccharomyces cerevisiae): 0.064 µg/mL (≈ 0.0504 µM); MIC50 ([1]; Saccharomyces cerevisiae): 0.032 µg/mL (≈ 0.0252 µM); MFC [2]: 0.016 µg/mL; MIC50 [2]: 0.016 µg/mL; MFC [3]: 8 µg/mL; MIC50 [3]: 1 µg/mL; MFC [4]: 0.032 µg/mL; MIC50 [4]: 0.016 µg/mL; MFC [5]: 0.032 µg/mL; MIC50 [5]: 0.016 µg/mL; MFC [7]: 0.032 µg/mL; MIC50 [7]: 0.032 µg/mL; MFC [8]: 3.2 µg/mL; MIC50 [8]: 0.4 µg/mL
OC(Cn1cncn1)(Cn1cncn1)c1ccc(F)cc1F [Fluconazole, reference compound]	fungicidal (An MFC/MIC ratio of less than four indicates that the compound is fungicidal)	1	fungistatic (an MFC/MIC ratio of greater than four indicates that the compound is fungistatic)	9	fungistatic (an MFC/MIC ratio of greater than four indicates that the compound is fungistatic)	7	fungistatic (an MFC/MIC ratio of greater than four indicates that the compound is fungistatic)	5	fungistatic (an MFC/MIC ratio of greater than four indicates that the compound is fungistatic)	5	fungistatic (an MFC/MIC ratio of greater than four indicates that the compound is fungistatic)	5	0.25	20	fungistatic (an MFC/MIC ratio of greater than four indicates that the compound is fungistatic)	8	fungistatic (an MFC/MIC ratio of greater than four indicates that the compound is fungistatic)	10	MFC ([1]; Saccharomyces cerevisiae (YPH501), read-out: MFC): 10 µg/mL (≈ 32.7 µM); MIC50 ([1]; Saccharomyces cerevisiae (YPH501), read-out: MIC-50): 10 µg/mL (≈ 32.7 µM); MIC50 ([9]; C. albicans CS#01, first clinical strain): 1.6 µg/mL (≈ 5.22 µM); MIC50 ([9]; C. albicans CS#02, second clinical strain): 1.6 µg/mL (≈ 5.22 µM); MIC50 ([9]; Strain #1, fluconazole sensitive Candida albicans strain): 0.8 µg/mL (≈ 2.61 µM); MIC50 ([9]; Strain #17, fluconazole resistant Candida albicans strain): > 100 µg/mL; MFC ([2]; Candida glabrata, read-out: MFC): 50 µg/mL; MIC50 ([2]; Candida glabrata, read-out: MIC-50): 6.2 µg/mL; MFC ([3]; read-out: MFC): 200 µg/mL; MIC50 ([3]; read-out: MIC-50): 30 µg/mL; MFC ([4]; read-out: MFC): 100 µg/mL; MIC50 ([4]; read-out: MIC-50): 20 µg/mL; MFC ([5]; Candida apicola, read-out: MFC): 1 µg/mL; MIC50 ([5]; Candida apicola, read-out: MIC-50): 0.2 µg/mL; MFC ([7]; Candida lusitaniae, read-out: MFC): 25 µg/mL; MIC50 ([7]; Candida lusitaniae, read-out: MIC-50): 3.2 µg/mL; MFC ([8]; Candidia parapsilosis, read-out: MFC): 4 µg/mL; MIC50 ([8]; Candidia parapsilosis, read-out: MIC-50): 0.4 µg/mL
